Starred links: 1 amine or outer side, 2 acyl side, 3 side chain; linkers in the order of their positions; H or OH if unused. Positions of bridges follow the written chain, without caps; N, C: chain ends. Non-standard residues stand in square brackets, D forms with d. Residues, ends and D or L forms follow the SMILES beside them. Groups on a side chain read outwards from the residue. Chains are numbered I, II in the order given. *: point of attachment. X1 = O=C(O)CN1CCN(CC(=O)O)CCN(CC(=O)NC(CC(=O)NCCOCCOCC(=O)[*:1])CC(=O)NCCOCCOCC(=O)[*:2])CCN(CC(=O)O)CC1; DOTA = O=C(O)CN1CCN(CC(=O)O)CCN(CC(=O)*)CCN(CC(=O)O)CC1; Nicotinoyl(6-NMe3+) = C[N+](C)(C)c1ccc(C(=O)*)cn1; Phe(4-CH2NH2) = NCc1ccc(C[C@H](N)C(=O)O)cc1; Piperazinyl(4-CH2COOH) = O=C(O)CN1CCN(*)CC1; Nicotinoyl(6-F) = O=C(c1ccc(F)nc1)*; NMeF = CN[C@@H](Cc1ccccc1)C(=O)O; Aoc(2) = CCCCCC[C@H](N)C(=O)O; Ahp(2) = CCCCC[C@H](N)C(=O)O; hSer = N[C@@H](CCO)C(=O)O; AEEA = NCCOCCOCC(=O)O; CO = O=C([*:1])[*:2]; Propyl = CCC*
Columns and labels:
[1] = biological target: T1, mouse FAP (Mus musculus, UniProt P97321); assay: Surface plasmon resonance (SPR) for peptide affinity, mouse FAP; type: binding
T1 construct: biotinylated His, Avi tag, mouse FAP (26-761, FAP-M82Q5); His; Avi tag (biotinylated); purchased AcroBiosystems FAP-M82Q5
T1 sequence (P97321 26-761): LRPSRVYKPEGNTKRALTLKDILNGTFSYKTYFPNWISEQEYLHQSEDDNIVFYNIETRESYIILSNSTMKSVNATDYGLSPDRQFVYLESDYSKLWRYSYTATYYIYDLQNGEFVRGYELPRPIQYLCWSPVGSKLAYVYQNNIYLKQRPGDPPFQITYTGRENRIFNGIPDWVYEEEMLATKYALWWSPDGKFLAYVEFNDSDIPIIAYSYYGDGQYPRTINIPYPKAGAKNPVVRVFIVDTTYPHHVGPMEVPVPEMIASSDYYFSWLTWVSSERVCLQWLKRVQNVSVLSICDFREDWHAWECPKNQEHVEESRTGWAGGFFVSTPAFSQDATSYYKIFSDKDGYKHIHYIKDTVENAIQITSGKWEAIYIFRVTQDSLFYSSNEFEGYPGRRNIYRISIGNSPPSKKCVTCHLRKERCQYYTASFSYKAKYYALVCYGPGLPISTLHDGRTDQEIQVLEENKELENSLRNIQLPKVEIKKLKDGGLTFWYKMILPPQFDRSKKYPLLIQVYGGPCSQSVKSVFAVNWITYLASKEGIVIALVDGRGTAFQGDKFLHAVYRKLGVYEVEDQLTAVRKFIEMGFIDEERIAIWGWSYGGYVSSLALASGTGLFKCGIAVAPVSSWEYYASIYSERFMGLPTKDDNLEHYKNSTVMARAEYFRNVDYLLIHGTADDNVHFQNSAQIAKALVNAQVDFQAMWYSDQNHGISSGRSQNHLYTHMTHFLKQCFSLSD
Outline: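 Biotinylated His/Avi-tagged FAP ectodomains (human 26-760, mouse 26-761) captured or immobilized on Biacore sensor chips; peptides run at 25 °C in HBS-EP+ pH 7.6 with 2% DMSO, single-cycle kinetics, 8 concentrations. KD from 1:1 binding-model fit of sensorgrams.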

[2] = biological target: T1, mouse FAP; assay: Enzymatic FAP competition assay (Z-Gly-Pro-AMC fluorescence), mouse FAP; type: biochemical; details: read-out: m. FAP, Enz., IC50
Outline: (§1)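 Biotinylated His/Avi-tagged FAP ectodomain (human 26-760, mouse 26-761) at 0.01 nM, preincubated 24 h with peptides (14 concentrations, up to 1 μM) in pH 7.5 phosphate, 150 mM NaCl, 0.05% Tween20, 1% DMSO. Then 50 μM Z-Gly-Pro-AMC, 4 h at 22-24° C; AMC fluorescence (380/460 nm) gave IC50 from duplicate points.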

[3] = biological target: T2, human FAP (Homo sapiens, UniProt Q12884); assay: Surface plasmon resonance (SPR) for peptide affinity, human FAP; type: binding; details: read-out: h. FAP, SPR, KD
T2 construct: the biotinylated His, Avi tag, human FAP (26-760, FAP-H82Q6); His; Avi tag (biotinylated); purchased AcroBiosystems FAP-H82Q6
T2 sequence (Q12884 26-760): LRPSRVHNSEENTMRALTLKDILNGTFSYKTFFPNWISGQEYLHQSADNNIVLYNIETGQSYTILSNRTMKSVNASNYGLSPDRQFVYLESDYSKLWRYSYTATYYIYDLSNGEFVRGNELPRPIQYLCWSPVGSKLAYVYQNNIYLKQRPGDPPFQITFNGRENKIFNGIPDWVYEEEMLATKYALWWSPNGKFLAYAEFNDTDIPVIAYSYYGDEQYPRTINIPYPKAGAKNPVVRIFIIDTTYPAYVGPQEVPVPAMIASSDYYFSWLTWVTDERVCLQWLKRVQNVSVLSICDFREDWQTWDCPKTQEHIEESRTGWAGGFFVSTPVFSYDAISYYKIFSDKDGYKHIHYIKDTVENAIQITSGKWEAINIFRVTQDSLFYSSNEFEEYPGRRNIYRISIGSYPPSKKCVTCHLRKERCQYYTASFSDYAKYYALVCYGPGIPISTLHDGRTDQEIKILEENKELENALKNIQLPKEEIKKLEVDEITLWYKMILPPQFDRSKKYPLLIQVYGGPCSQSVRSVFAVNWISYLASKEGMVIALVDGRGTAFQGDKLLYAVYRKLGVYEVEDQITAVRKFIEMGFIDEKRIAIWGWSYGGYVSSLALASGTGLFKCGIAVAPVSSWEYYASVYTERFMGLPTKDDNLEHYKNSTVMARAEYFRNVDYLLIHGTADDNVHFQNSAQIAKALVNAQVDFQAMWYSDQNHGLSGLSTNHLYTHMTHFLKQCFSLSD
Experimental: Peptide affinities (KD) were determined by SPR using a Biacore™ 8K device (Cytiva) towards the following proteins: biotinylated His, Avi tag, human FAP (26-760, FAP-H82Q6), biotinylated His, Avi tag, mouse FAP (26-761, FAP-M82Q5), His tag, human DPP4 (34-766, DP4-H82E3), all purchased from AcroBiosystems and His tag, mouse DPP4 (29-760, 954-SE) from R&D Systems. The FAP proteins and their homologous were diluted to a concentration of 2 μg/mL into acetate buffer pH 5.5, then immobilized onto a CM5 sensorchip (Cytiva, BR-1005-30) to reach a response around 2000 R U. The running buffer HBS-EP+pH 7.6 (20× from Teknova CAT. No: H8022) contained 10 mM HEPES pH 7.6, 150 mM NaCl, 3 mM EDTA, 0.05% Tween20 and 2% DMSO. Experiments were carried out at 25° C. using a flow rate of 30 μL/min. Compounds were tested in single cycle kinetic mode at 8 different concentrations. Curve fitting was performed using the Biacore™ 8K evaluation software. The sensorgrams were fitted by applying a 1:1 binding model to calculate kinetic rate constants and equilibrium dissociation constants (KD).
For this assay, the setup had the same conditions (flow rate, running buffer, peptide dilution) as described above for the CM5 method. The oligo CAP reagent obtained in the CAPture Kit (Ref. 28920234) was 1/5 diluted into running buffer and used with a contact time of 300 s at a flow rate of 2 μL/min. The human and mouse FAP constructs described above were used (from AcroBiosystems or produced in house). The FAP proteins were diluted to a concentration of 2 μg/mL into acetate pH 5.5, 0.05% Tween20 and used with a contact time of 600 s at a flow rate of 10 μL/min. The peptides were tested with an association time of 280 s followed by a dissociation time of 3000 s at a flow rate of 30 μL/min. The regeneration was done using the regeneration solution (8 M guanidine-HCl, 1 M NaOH) as obtained with a contact time of 270 s at a flow rate of 10 μL/min. […] The compounds marked with an asterisk were tested against human and mouse DDP4.

[4] = biological target: T2, human FAP; assay: Enzymatic FAP competition assay (Z-Gly-Pro-AMC fluorescence), human FAP; type: biochemical; details: read-out: h. FAP, Enz., IC50
Outline: as §1

| Compound | Kd [1] | IC50 [2] | Kd [3] | IC50 [4] |
| --- | --- | --- | --- | --- |
| CCCCC[C@@H]1NC(=O)[C@H](Cc2ccc(O)cc2)NC(=O)[C@H](Cc2ccccc2)N(C)C(=O)CNC(=O)CNC(=O)[C@H]2CCCN2C(=O)[C@H](CC(=O)O)NC(=O)[C@H](Cc2ccc(O)cc2)NC(=O)CNC(=O)[C@H](Cc2c[nH]c3ccccc23)NC1=O [Example A52, Gly-Gly-NMePhe-Tyr-Ahp-Trp-Gly-Tyr-Asp-D-Pro] (cyclo([Ahp(2)]WGYD[dP]GG[NMeF]Y)) | 0.36 nM | 0.737 nM | 0.118 nM | 0.104 nM |
| CCCCCC[C@@H]1NC(=O)[C@H](Cc2ccc(CNC(=O)COCCOCCNC(=O)CN3CCN(CC(=O)O)CCN(CC(=O)O)CCN(CC(=O)O)CC3)cc2)NC(=O)[C@H](Cc2ccccc2)N(C)C(=O)CNC(=O)CNC(=O)[C@H]2CCCN2C(=O)[C@H](CC(=O)O)NC(=O)[C@H](CCCCNC(=O)N2CCN(CC(=O)O)CC2)NC(=O)CNC(=O)[C@H](Cc2c[nH]c3ccccc23)NC1=O [Example B1, Gly-Gly-NMePhe-F(4amPEG2NHDOTA)-Aoc-Trp-Gly-K(COpipzaa)-Asp-D-Pro] (cyclo(GG[NMeF][Phe(4-CH2NH2)]([AEEA-DOTA])[Aoc(2)]WGK([CO-Piperazinyl(4-CH2COOH)])D[dP])) | < 0.018 nM | 0.013 nM | < 0.011 nM | 0.005 nM |
| CCCOCC[C@@H]1NC(=O)[C@H](Cc2ccc(CNC(=O)COCCOCCNC(=O)CN3CCN(CC(=O)O)CCN(CC(=O)O)CCN(CC(=O)O)CC3)cc2)NC(=O)[C@H](Cc2ccccc2)N(C)C(=O)CNC(=O)CNC(=O)[C@H]2CCCN2C(=O)[C@H](CC(=O)O)NC(=O)[C@H](CCCCNC(=O)N2CCN(CC(=O)O)CC2)NC(=O)CNC(=O)[C@H](Cc2c[nH]c3ccccc23)NC1=O [Example B2, Gly-Gly-NMePhe-F(4ampEG2NHDOTA)-hS(Pr)-Trp-Gly-K(COpipzaa)-Asp-D-Pro] (cyclo(D[dP]GG[NMeF][Phe(4-CH2NH2)]([AEEA-DOTA])[hSer](Propyl)WGK([CO-Piperazinyl(4-CH2COOH)]))) | < 0.022 nM | 0.018 nM | < 0.013 nM | 0.007 nM |
| CCCOCC[C@@H]1NC(=O)[C@H](Cc2ccc(CNC(=O)COCCOCCNC(=O)c3ccc(F)nc3)cc2)NC(=O)[C@H](Cc2ccccc2)N(C)C(=O)CNC(=O)CNC(=O)[C@H]2CCCN2C(=O)[C@H](CC(=O)O)NC(=O)[C@H](CCCCNC(=O)N2CCN(CC(=O)O)CC2)NC(=O)CNC(=O)[C@H](Cc2c[nH]c3ccccc23)NC1=O [Example C56, Gly-Gly-NMePhe-F(4amPEG2NHCOPy3(4F))-hS(Pr)-Trp-Gly-K(Copipzaa)-Asp-D-Pro] (cyclo(D[dP]GG[NMeF][Phe(4-CH2NH2)]([AEEA-Nicotinoyl(6-F)])[hSer](Propyl)WGK([CO-Piperazinyl(4-CH2COOH)]))) | < 0.023 nM | 0.037 nM | < 0.007 nM | 0.009 nM |
| CCCCCC[C@@H]1NC(=O)[C@H](Cc2ccc(CNC(=O)COCCOCCNC(=O)c3ccc([N+](C)(C)C)nc3)cc2)NC(=O)[C@H](Cc2ccccc2)N(C)C(=O)CNC(=O)CNC(=O)[C@H]2CCCN2C(=O)[C@H](CC(=O)O)NC(=O)[C@H](CCCCNC(=O)N2CCN(CC(=O)O)CC2)NC(=O)CNC(=O)[C@H](Cc2c[nH]c3ccccc23)NC1=O [Example C57, Gly-Gly-NMePhe-F(4amPEG2NHCOPy3(4(NMe3)))-Aoc-Trp-Gly-K(COpipzaa)-Asp-D-Pro] (cyclo([Aoc(2)]WGK([CO-Piperazinyl(4-CH2COOH)])D[dP]GG[NMeF][Phe(4-CH2NH2)]([AEEA-Nicotinoyl(6-NMe3+)]))) | < 0.014 nM | 0.016 nM | < 0.013 nM | 0.006 nM |
| CCCOCC[C@@H]1NC(=O)[C@H](Cc2ccc(CNC(=O)COCCOCCNC(=O)c3ccc([N+](C)(C)C)nc3)cc2)NC(=O)[C@H](Cc2ccccc2)N(C)C(=O)CNC(=O)CNC(=O)[C@H]2CCCN2C(=O)[C@H](CC(=O)O)NC(=O)[C@H](CCCCNC(=O)N2CCN(CC(=O)O)CC2)NC(=O)CNC(=O)[C@H](Cc2c[nH]c3ccccc23)NC1=O [Example C58] (cyclo(D[dP]GG[NMeF][Phe(4-CH2NH2)]([AEEA-Nicotinoyl(6-NMe3+)])[hSer](Propyl)WGK([CO-Piperazinyl(4-CH2COOH)]))) | < 0.017 nM | 0.017 nM | < 0.007 nM | 0.006 nM |
| CCCCCC[C@@H]1NC(=O)[C@H](Cc2ccc(CNC(=O)COCCOCCNC(=O)CC(CC(=O)NCCOCCOCC(=O)NCc3ccc(C[C@@H]4NC(=O)[C@H](Cc5ccccc5)N(C)C(=O)CNC(=O)CNC(=O)[C@H]5CCCN5C(=O)[C@H](CC(=O)O)NC(=O)[C@H](CCCCNC(=O)N5CCN(CC(=O)O)CC5)NC(=O)CNC(=O)[C@H](Cc5c[nH]c6ccccc56)NC(=O)[C@H](CCCCCC)NC4=O)cc3)NC(=O)CN3CCN(CC(=O)O)CCN(CC(=O)O)CCN(CC(=O)O)CC3)cc2)NC(=O)[C@H](Cc2ccccc2)N(C)C(=O)CNC(=O)CNC(=O)[C@H]2CCCN2C(=O)[C@H](CC(=O)O)NC(=O)[C@H](CCCCNC(=O)N2CCN(CC(=O)O)CC2)NC(=O)CNC(=O)[C@H](Cc2c[nH]c3ccccc23)NC1=O [Example M1] (I: cyclo(GG[NMeF][Phe(4-CH2NH2)][Aoc(2)]WGK([CO-Piperazinyl(4-CH2COOH)])D[dP]) / II: cyclo(GG[NMeF][Phe(4-CH2NH2)][Aoc(2)]WGK([CO-Piperazinyl(4-CH2COOH)])D[dP]); linker I:4-II:4 via X1) | < 0.057 nM | 0.134 nM | < 0.03 nM | 0.039 nM |

From patent US20250090699A1, “FAP TARGETING CYCLIC PEPTIDES AND CONJUGATES THEREOF” (Novartis AG, priority 2023, published 2025)
